From the supplement of paper PMC11061612 come the findings set out here.

The test system of experiment [1] is HCC1143 (Breast Carcinoma). In words: Bliss excess, mean over the matrix (fraction); higher = more synergy. The procedure, abridged:
(§1)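 After 24 hours at 37°C and 5% CO2 in 1536-well plates, cells in DMEM/F12 or RPMI plus 10% FBS received two-drug dose matrices for 72 hours. Viability came from CellTiter-Glo 2.0 luminescence and was scaled as inhibition, anchored at 0 by vehicle wells and at 1 by blank wells. Combination Emax is taken as the second-highest inhibition in the matrix, and Bliss excess as the observed combination effect less EA + EB − EA·EB, with EA and EB the single-agent effects.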

The subject of experiment [2] is SW48 (Colorectal Carcinoma). Described as above. The procedure, abridged:
as §1

Experiment [3] concerns TYK-nu (Ovarian Carcinoma). The description is as above. In a few lines: as §1
Experiment [4] concerns WSU-DLCL2 (B-Cell Non-Hodgkin's Lymphoma). Described as above. In a few lines: as §1
In the next experiment the test system is HuO9 (Osteosarcoma). The experiment is described as above. The procedure, abridged: as §1
Experiment [5] concerns SNG-M (Endometrial Carcinoma). The experiment is described as above. The procedure, abridged:
as §1

Experiment [6] deals with KG-1 (Acute Myeloid Leukemia). The experiment is described as above. In a few lines: as §1
The test system of experiment [7] is CAL-39 (Other Solid Carcinomas). The description is as above. The procedure, abridged:
as §1

Experiment [8] has as its system SKN-3 (Head and Neck Carcinoma). Described as above. The procedure, abridged:
as §1

In experiment [9] the test system is P31-FUJ (Acute Myeloid Leukemia). The experiment is described as above. The procedure, abridged:
as §1

Another experiment relates to MSTO-211H (Mesothelioma). The experiment is described as above. In a few lines:
as §1

The subject of experiment [10] is SNU-61 (Colorectal Carcinoma). The experiment is described as above. In a few lines: as §1
For experiment [11], the system named is HLE (Hepatocellular Carcinoma). Described as above. The procedure, abridged:
as §1

In experiment [12] the test system is BICR78 (Oral Cavity Carcinoma). Described as above. In a few lines:
as §1

For experiment [13], the system named is HCC1143 (Breast Carcinoma). In words: combination Emax (second highest fraction inhibited in the dose matrix, 72 h); higher = more inhibition; extreme values may be limits of the assay. In a few lines: as §1
Experiment [14] relates to YT (Other Blood Carcinomas). The description is as above. The procedure, abridged:
as §1

For experiment [15], the system named is PA-TU-8902 (Pancreatic Carcinoma). The experiment is described as above. In a few lines: as §1
Experiment [16] relates to EFM-192A (Breast Carcinoma). The description is as above. In a few lines:
as §1

In experiment [17] the test system is 647-V (Bladder Carcinoma). Described as above. In a few lines:
as §1

Experiment [18] relates to SK-LMS-1 (Other Solid Carcinomas). Described as above. In a few lines: as §1
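Wherever Bliss excess, mean over the matrix is given: after 72 h of two-drug dosing.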

Consider `CN(C)CCCOc1ccc(-c2ccc3ncc4c(c3c2)n(C2CCOCC2)c(=O)n4C)cn1` [AZD0156] + C=CCn1c(=O)c2cnc(Nc3ccc(N4CCN(C)CC4)cc3)nc2n1-c1cccc(C(C)(C)O)n1 [AZD1775] (first compound max 1 µM, partner max 1 µM), for which the Bliss excess in experiment [1] was -0.0802; in experiment [2], -0.0172; in experiment [3], -0.0836; in experiment [4], -0.0119; in the experiment with HuO9 (Osteosarcoma), -0.0017; in experiment [5] it was -0.0562. In addition, the Bliss excess in experiment [6] was -0.0194; in experiment [7], -0.0326; in experiment [8] it was -0.0276; in experiment [9] it was 0.0046; with MSTO-211H (Mesothelioma), 0.0099; in [10], -0.0277. The figures for the Bliss excess in experiment [11] and in experiment [12] were -0.026 and -0.0107, respectively. For the same compound, the “combination Emax” value was determined as 0.6 in [13]; 0.888 in [14]; 0.252 in [15]; 0.353 in experiment [16]; 0.446 in [17]; 0.439 in experiment [18].
Consider `CN(C)CCCOc1ccc(-c2ccc3ncc4c(c3c2)n(C2CCOCC2)c(=O)n4C)cn1` [AZD0156] + CCN(CCO)CCCOc1ccc2c(Nc3cc(CC(=O)Nc4cccc(F)c4)[nH]n3)ncnc2c1 [AZD2811] (first compound max 1 µM, 7x7, partner max 1 µM), for which the Bliss excess in experiment [1] is 0.0372; in experiment [2], -0.0164; in experiment [3], -0.0179; in experiment [4] it was 0.0362; with HuO9 (Osteosarcoma), -0.009; in experiment [5], -0.0218. Further, the Bliss excess is -0.0001 in experiment [6]; 0.0177 in experiment [7]; -0.0239 in [8]; -0.0314 in experiment [9]; -0.0098 with MSTO-211H (Mesothelioma); -0.0339 in experiment [10]. Moreover, the Bliss excess in [11] was 0.0189; in experiment [12], -0.047. In addition, the “combination Emax” value amounted to 0.302 in [13]; 0.591 in experiment [14]; 0.0699 in [15]; 0.269 in experiment [16]; 0.167 in experiment [17]; 0.278 in experiment [18].
With `CN(C)CCCOc1ccc(-c2ccc3ncc4c(c3c2)n(C2CCOCC2)c(=O)n4C)cn1` [AZD0156] + C[C@@H]1COCCN1C2=NC(=NC(=C2)C3(CC3)[S@](=N)(=O)C)C4=C5C=CNC5=NC=C4 [AZD6738] (first compound max 1 µM, 7x7, partner max 10 µM), the Bliss excess is 0.0323 in experiment [1]; -0.0043 in [2]; -0.0143 in experiment [3]; 0.0712 in experiment [4]; 0.0236 in the experiment with HuO9 (Osteosarcoma); 0.0138 in [5]. Moreover, the Bliss excess in experiment [6] was 0.128; in experiment [7] it was 0.0017; in experiment [8], 0.0368; in [9] it was -0.0462; in the experiment with MSTO-211H (Mesothelioma) it was 0.0418; in experiment [10] it was -0.0047. The Bliss excess was 0.0261 in experiment [11] and 0.0119 in [12]. Further, the “combination Emax” value in [13] amounted to 0.871; in experiment [14] it was 0.727; in [15], 0.41; in experiment [16], 0.245; in experiment [17], 0.491; in [18], 0.525.
Consider `CN(C)CCCOc1ccc(-c2ccc3ncc4c(c3c2)n(C2CCOCC2)c(=O)n4C)cn1` [AZD0156] + O=C(c1cc(Cc2n[nH]c(=O)c3ccccc23)ccc1F)N1CCN(C(=O)C2CC2)CC1 [Olaparib] (first compound max 3 µM, partner max 3 µM), for which the Bliss excess in [1] is -0.0194; in [3], 0.0468; in experiment [4], 0.211; with HuO9 (Osteosarcoma) it was 0.0888; in [5], -0.0267; in experiment [6] it was 0.0474. For the same compound, the Bliss excess in experiment [7] was 0.0549; in [8], -0.0165; in [9], 0.0759; with MSTO-211H (Mesothelioma) it was -0.0685; in experiment [11] it was -0.0129; in [12], -0.0507. In addition, the “combination Emax” value was determined as 0.203 in experiment [13]; 0.212 in experiment [14]; 0.239 in [15]; 0.248 in experiment [16]; 0.257 in experiment [17]; 0.392 in [18].
`C=CCn1c(=O)c2cnc(Nc3ccc(N4CCN(C)CC4)cc3)nc2n1-c1cccc(C(C)(C)O)n1` [AZD1775] + C1CN(CCC1(C(=O)N[C@@H](CCO)C2=CC=C(C=C2)Cl)N)C3=NC=NC4=C3C=CN4 [Capivasertib] (first compound max 3 µM, partner max 3 µM): the Bliss excess was -0.05 in experiment [1]; -0.0475 in [3]; -0.0709 in experiment [4]; -0.0495 with HuO9 (Osteosarcoma); -0.0575 in [5]; 0.0152 in [6]. The Bliss excess in experiment [7] was -0.0152; in experiment [8], -0.0344; in experiment [9] it was -0.0276; in the experiment with MSTO-211H (Mesothelioma), -0.0797; in experiment [11] it was -0.0734; in [12] it was -0.0822. For the same compound, the “combination Emax” value amounted to 0.771 in experiment [13]; 0.949 in experiment [14]; 0.527 in experiment [15]; 0.494 in experiment [16]; 0.948 in experiment [17]; 0.635 in [18].
For `C=CCn1c(=O)c2cnc(Nc3ccc(N4CCN(C)CC4)cc3)nc2n1-c1cccc(C(C)(C)O)n1` [AZD1775] + C[C@@H]1COCCN1C2=NC(=NC(=C2)C3(CC3)[S@](=N)(=O)C)C4=C5C=CNC5=NC=C4 [AZD6738] (first compound max 1 µM, partner max 10 µM), the Bliss excess was 0.0108 in experiment [1]; 0.0642 in [2]; -0.0711 in experiment [3]; 0.0763 in experiment [4]; 0.0672 in the experiment on HuO9 (Osteosarcoma); -0.0128 in experiment [5]. In addition, the Bliss excess in experiment [6] was -0.0218; in experiment [7], 0.0822; in [8], 0.0234; in [9] it was -0.008; in the experiment on MSTO-211H (Mesothelioma) it was 0.0418; in experiment [10], -0.051. Further, the Bliss excess in experiment [11] is -0.0148. Further, the “combination Emax” value in experiment [13] worked out at 0.906; in experiment [14], 0.897; in experiment [15] it was 0.49; in experiment [16], 0.39; in experiment [17], 0.769; in [18], 0.704.
`C=CCn1c(=O)c2cnc(Nc3ccc(N4CCN(C)CC4)cc3)nc2n1-c1cccc(C(C)(C)O)n1` [AZD1775] + O=C(c1cc(Cc2n[nH]c(=O)c3ccccc23)ccc1F)N1CCN(C(=O)C2CC2)CC1 [Olaparib] (first compound max 1 µM, partner max 10 µM): the Bliss excess was -0.0675 in [1]; -0.0398 in [2]; -0.108 in experiment [3]; -0.0184 in experiment [4]; 0.0102 in the experiment with HuO9 (Osteosarcoma); -0.0105 in [5]. In addition, the Bliss excess was -0.0195 in experiment [6]; -0.0223 in [7]; -0.0512 in [8]; -0.0809 in experiment [9]; -0.0203 in the experiment on MSTO-211H (Mesothelioma); -0.0289 in experiment [10]. Besides, the Bliss excess in experiment [11] is -0.0567; in experiment [12], 0.0107. In addition, the “combination Emax” value in experiment [13] amounted to 0.593; in [14], 0.902; in experiment [15] it was 0.289; in experiment [16], 0.293; in experiment [17], 0.654; in [18] it was 0.563.
